Measured values: ChEMBL document CHEMBL4184305, “Inhibition of histone lysine methyltransferases G9a and GLP by ejection of structural Zn(II)” (Bioorg Med Chem Lett, 2018)
Calls of active or inactive are those of the source. No cut-off for these calls is given here.

Experiments:
[1] = biological target: T1, Histone-lysine N-methyltransferase EHMT1 (Homo sapiens) (UniProt Q9H9B1); test: Inhibition of wild type recombinant human histone lysine methyltransferase GLP (951 to 1235 residues) expressed in Escherichia coli Rosetta BL21 DE3 PlysS at 100 uM using ARTKQTARKSTGGKA as substrate preincubated for 5 mins followed by substrate/SAM addition measured after 60 mins by MALDI-TOF MS analysis
T1 sequence (whole entry): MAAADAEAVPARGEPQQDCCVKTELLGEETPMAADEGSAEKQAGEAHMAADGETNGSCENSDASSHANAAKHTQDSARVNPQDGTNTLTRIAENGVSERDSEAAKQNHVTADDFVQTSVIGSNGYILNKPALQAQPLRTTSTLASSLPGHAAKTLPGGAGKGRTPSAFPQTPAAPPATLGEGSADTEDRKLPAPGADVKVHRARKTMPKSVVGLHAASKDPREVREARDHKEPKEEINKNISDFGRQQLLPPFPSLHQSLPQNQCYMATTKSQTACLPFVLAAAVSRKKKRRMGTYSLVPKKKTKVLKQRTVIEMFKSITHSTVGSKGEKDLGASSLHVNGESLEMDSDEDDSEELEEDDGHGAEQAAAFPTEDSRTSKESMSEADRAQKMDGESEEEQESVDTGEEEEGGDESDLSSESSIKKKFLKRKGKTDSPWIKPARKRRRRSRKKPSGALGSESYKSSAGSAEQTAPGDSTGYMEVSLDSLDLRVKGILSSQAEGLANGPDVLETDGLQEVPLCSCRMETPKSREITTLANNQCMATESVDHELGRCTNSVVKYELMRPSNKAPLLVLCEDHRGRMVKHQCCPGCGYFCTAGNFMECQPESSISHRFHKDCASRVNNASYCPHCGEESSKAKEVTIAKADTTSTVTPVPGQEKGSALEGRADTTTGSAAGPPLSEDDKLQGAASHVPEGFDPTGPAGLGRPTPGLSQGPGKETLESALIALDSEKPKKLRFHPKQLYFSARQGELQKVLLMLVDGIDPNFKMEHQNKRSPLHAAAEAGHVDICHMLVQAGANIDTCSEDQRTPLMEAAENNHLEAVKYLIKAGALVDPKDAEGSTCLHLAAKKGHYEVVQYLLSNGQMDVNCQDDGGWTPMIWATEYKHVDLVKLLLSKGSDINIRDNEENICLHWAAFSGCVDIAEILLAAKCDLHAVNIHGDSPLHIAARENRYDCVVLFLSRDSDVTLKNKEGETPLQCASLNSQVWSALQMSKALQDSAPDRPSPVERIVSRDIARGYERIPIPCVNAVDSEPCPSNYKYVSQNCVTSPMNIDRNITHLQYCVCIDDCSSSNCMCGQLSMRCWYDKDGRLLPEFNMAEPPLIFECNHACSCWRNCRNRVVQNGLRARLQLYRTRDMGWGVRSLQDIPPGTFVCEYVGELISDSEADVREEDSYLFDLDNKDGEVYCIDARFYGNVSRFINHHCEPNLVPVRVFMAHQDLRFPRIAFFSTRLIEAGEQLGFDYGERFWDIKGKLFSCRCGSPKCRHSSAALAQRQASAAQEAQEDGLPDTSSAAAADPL

[2] = biological target: T1, Histone-lysine N-methyltransferase EHMT1 (Homo sapiens); test: Induction of wild type recombinant human histone lysine methyltransferase GLP (951 to 1235 residues) protein unfolding at 100 uM by circular dichroism analysis
[3] = biological target: T1, Histone-lysine N-methyltransferase EHMT1 (Homo sapiens); test: Inhibition of wild type recombinant human histone lysine methyltransferase GLP (951 to 1235 residues) expressed in Escherichia coli Rosetta BL21 DE3 PlysS assessed as zinc ions ejection from Cys4-Zn finger at 2.5 to 100 uM after 500 to 3500 secs by FluoZin-3 based fluorescence assay
[4] = biological target: T2, Histone-lysine N-methyltransferase EHMT2 (Homo sapiens) (UniProt Q96KQ7); test: Inhibition of wild type recombinant human histone lysine methyltransferase G9a (913 to 1193 residues) expressed in Escherichia coli Rosetta BL21 DE3 PlysS assessed as zinc ions ejection from Cys4-Zn finger at 100 uM by FluoZin-3 based fluorescence assay
T2 sequence (whole entry): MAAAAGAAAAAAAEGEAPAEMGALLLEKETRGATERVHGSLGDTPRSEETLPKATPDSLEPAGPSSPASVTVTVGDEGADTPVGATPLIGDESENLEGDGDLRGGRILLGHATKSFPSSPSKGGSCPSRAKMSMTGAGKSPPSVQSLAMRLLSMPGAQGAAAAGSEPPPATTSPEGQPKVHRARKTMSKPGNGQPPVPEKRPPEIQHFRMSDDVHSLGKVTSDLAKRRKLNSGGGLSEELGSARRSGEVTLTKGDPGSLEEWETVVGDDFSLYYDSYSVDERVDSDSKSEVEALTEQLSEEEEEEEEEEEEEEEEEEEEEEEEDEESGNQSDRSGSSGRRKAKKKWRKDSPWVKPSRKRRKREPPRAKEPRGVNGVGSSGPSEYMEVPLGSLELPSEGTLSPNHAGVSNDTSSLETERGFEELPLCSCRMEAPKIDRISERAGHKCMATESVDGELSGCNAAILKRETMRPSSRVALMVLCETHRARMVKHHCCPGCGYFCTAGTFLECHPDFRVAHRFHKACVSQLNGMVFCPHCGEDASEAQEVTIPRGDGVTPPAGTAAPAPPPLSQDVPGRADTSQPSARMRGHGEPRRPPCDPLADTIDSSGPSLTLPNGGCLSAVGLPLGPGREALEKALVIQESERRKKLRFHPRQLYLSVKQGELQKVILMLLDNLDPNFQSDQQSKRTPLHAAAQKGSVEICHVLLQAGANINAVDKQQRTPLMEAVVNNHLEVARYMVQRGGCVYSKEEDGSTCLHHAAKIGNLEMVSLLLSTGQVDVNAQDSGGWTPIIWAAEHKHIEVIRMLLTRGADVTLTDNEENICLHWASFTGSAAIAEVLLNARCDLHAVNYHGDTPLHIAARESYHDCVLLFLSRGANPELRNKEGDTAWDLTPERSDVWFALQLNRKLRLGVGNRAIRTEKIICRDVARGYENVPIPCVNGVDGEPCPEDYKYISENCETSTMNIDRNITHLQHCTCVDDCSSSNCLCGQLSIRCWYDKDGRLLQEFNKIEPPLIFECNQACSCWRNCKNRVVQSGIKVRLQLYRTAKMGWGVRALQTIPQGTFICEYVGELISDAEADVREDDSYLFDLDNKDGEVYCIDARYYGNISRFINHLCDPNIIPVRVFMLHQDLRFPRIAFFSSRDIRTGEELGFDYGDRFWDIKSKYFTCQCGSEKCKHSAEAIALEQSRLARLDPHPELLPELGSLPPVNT

[5] = biological target: T2, Histone-lysine N-methyltransferase EHMT2 (Homo sapiens); test: Inhibition of wild type recombinant human histone lysine methyltransferase G9a (913 to 1193 residues) expressed in Escherichia coli Rosetta BL21 DE3 PlysS assessed as zinc ions ejection from Cys4-Zn finger at 2.5 to 100 uM measured up to 1 min by FluoZin-3 based fluorescence assay
[6] = biological target: T2, Histone-lysine N-methyltransferase EHMT2 (Homo sapiens); test: Inhibition of wild type recombinant human histone lysine methyltransferase G9a (913 to 1193 residues) expressed in Escherichia coli Rosetta BL21 DE3 PlysS assessed as zinc ions ejection from Cys4-Zn finger at >25 uM after 1 hr by circular dichroism analysis

Row | Structure (SMILES) | inhibition [1] | Activity [2] | inhibition [3] | inhibition [4] | inhibition [5] | inhibition [6]
1 | CCN(CC)C(=S)SSC(=S)N(CC)CC | > 50% | Active | Active | Active | – | –
2 | O=c1c2ccccc2[se]n1-c1ccccc1 [EBSELEN] | > 50% | Active | – | Active | Active | Active
